The source of these data is patent US6673938B1, “Substituted pyridine herbicides” (Syngenta Participations AG, priority 1998, dated 2004).

For experiment [1], the system named is Monocotyledonous and dicotyledonous test plants. In words: Herbicidal action before emergence of the plants (pre-emergence action). The class given is in vivo. The following applies: evaluated after 3 weeks, nine-step scale; for pre-emergence action, Cyperus / pre-emergence action, Ipomoea / pre-emergence action, Setaria / pre-emergence action, Sinapis / pre-emergence action, Solanum / pre-emergence action, Stellaria: 2000 g/ha; for Pre-emergence action, Abutilon / Pre-emergence action, Amaranthus / Pre-emergence action, Chenop. / Pre-emergence action, Digitaria / Pre-emergence action, Echino. / Pre-emergence action, Panicum: 250 g/ha. How it is done: Monocotyledonous and dicotyledonous test plants are sown in standard soil in plastic pots. Immediately after sowing, the test substances as aqueous suspensions (prepared with a 25% wettable powder (Example F3, b) in accordance with WO 97/34485) or as emulsions (prepared with a 25% emulsion concentrate (Example F1, c)) are sprayed on at a rate of 2 kg of a.i./ha or 250 g of a.i./ha (500 l of water/ha). The test plants are then grown in the greenhouse under optimal conditions. After a test period of 3 weeks, the experiment is evaluated with reference to a nine-step scale (1=complete damage, 9=no effect). Score figures of 1 to 4 (in particular 1 to 3) mean a good to very good herbicidal action.

Experiment [2] shares this test system. Kind of experiment: Post-emergence herbicidal action. Format: in vivo. The following applies: evaluated after approximately 18 days; for Post-emergence action, Ipomoea / Post-emergence action, Lolium / Post-emergence action, Setaria / Post-emergence action, Sinapis / Post-emergence action, Solanum / Post-emergence action, Stellaria: 2000 g/ha, sprayed in 4- to 6-leaf stage, nine-step scale; for Post-emergence action: Abutilon (score, nine-step scale) / Post-emergence action: Chenop. (score, nine-step scale) / Post-emergence action: Digitaria (score, nine-step scale) / Post-emergence action: Echino. (score, nine-step scale) / Post-emergence action: Ipopur. (score, nine-step scale) / Post-emergence action: Panicum (score, nine-step scale) / Post-emergence action: Xanth. (score, nine-step scale): 250 g/ha, sprayed at 4- to 6-leaf stage. On the procedure:
Monocotyledonous and dicotyledonous test plants are grown in the greenhouse in plastic pots containing standard soil, and, in the 4- to 6-leaf stage, sprayed with an aqueous suspension of the test substances of the formula I prepared with a 25% wettable powder (Example F3, b) in accordance with WO 97/34485) or with an emulsion of the test substances of the formula I prepared with a 25% emulsion concentrate (Example F1, c) in accordance with WO 97/34485), corresponding to a rate of 2 kg of a.i./ha or 250 g of a.i./ha (500 l of water/ha). The test plants are subsequently grown on in the greenhouse under optimal conditions. After a test period of approximately 18 days, the test is evaluated with reference to a nine-step scale (1=complete damage, 9=no effect). Score figures of 1 to 4 (in particular 1 to 3) mean a good to very good herbicidal action. In this test, the compounds of the formula I show a potent herbicidal action.

On to `COC1(C)CCC(=O)C(C(=O)c2ccc(C(F)(F)F)nc2C)=C1O` (stereo not shown) [Compound A2-B33], for which, in experiment [1], the “pre-emergence action, Cyperus” value was 1; the “pre-emergence action, Ipomoea” value worked out at 3; the “pre-emergence action, Setaria” value amounted to 2; the “pre-emergence action, Sinapis” value is recorded as 2. In experiment [1], the “pre-emergence action, Solanum” value came to 1 and the “pre-emergence action, Stellaria” value is given as 3. In addition, in experiment [2], the “Post-emergence action, Ipomoea” value stood at 2; the “Post-emergence action, Lolium” value came to 4; the “Post-emergence action, Setaria” value turned out to be 2; the “Post-emergence action, Sinapis” value stood at 1. Besides, in experiment [2], the “Post-emergence action, Solanum” value turned out to be 2 and the “Post-emergence action, Stellaria” value turned out to be 2.

For `COC1CC(C)C(=O)C(C(=O)c2ccc(C(F)(F)F)nc2C)=C1O` (stereo not shown) [Compound A2-B1070, 3-Hydroxy-4-methoxy-6-methyl-2-(2-methyl-6-trifluoromethyl-pyridine-3-carbonyl)cyclohex-2-enone], in experiment [1], the “pre-emergence action, Cyperus” value came out at 2; the “pre-emergence action, Ipomoea” value is recorded as 3; the “pre-emergence action, Setaria” value is 3; the “pre-emergence action, Sinapis” value stood at 2. Besides, in experiment [1], the “pre-emergence action, Solanum” value was found to be 2 and the “pre-emergence action, Stellaria” value stood at 2. Further, in experiment [2], the “Post-emergence action, Ipomoea” value stood at 2; the “Post-emergence action, Lolium” value stood at 4; the “Post-emergence action, Setaria” value is listed as 2; the “Post-emergence action, Sinapis” value was found to be 2. In experiment [2], the “Post-emergence action, Solanum” value was determined as 2 and the “Post-emergence action, Stellaria” value is on record as 2.

Regarding `Cc1nc(C(F)(F)F)ccc1C(=O)C1=C(O)C(C)(C)OCC1=O` [Compound A2-B552], in experiment [1], the “pre-emergence action, Cyperus” value was determined as 1; the “pre-emergence action, Ipomoea” value came to 2; the “pre-emergence action, Setaria” value stood at 2; the “pre-emergence action, Sinapis” value amounted to 2. In experiment [1], the “pre-emergence action, Solanum” value is given as 1 and the “pre-emergence action, Stellaria” value is reported as 2.

In the case of `COC(=O)C1C(O)=C(C(=O)c2ccc(C(F)(F)F)nc2C)C(=O)CC1C` (stereo not shown) [Compound A2-B144], in experiment [1], the “pre-emergence action, Cyperus” value is 3; the “pre-emergence action, Ipomoea” value was determined as 4; the “pre-emergence action, Setaria” value was found to be 2; the “pre-emergence action, Sinapis” value came to 2. In experiment [1], the “pre-emergence action, Solanum” value worked out at 2 and the “pre-emergence action, Stellaria” value is listed as 4.

Take `COC(=O)C1(OC)CCC(=O)C(C(=O)c2ccc(C(F)(F)F)nc2C)=C1O` (stereo not shown) [Compound A2-B1067]: in experiment [1], the “pre-emergence action, Cyperus” value came out at 2; the “pre-emergence action, Ipomoea” value is 3; the “pre-emergence action, Setaria” value is recorded as 2; the “pre-emergence action, Sinapis” value is 2. In experiment [1], the “pre-emergence action, Solanum” value turned out to be 3 and the “pre-emergence action, Stellaria” value is 3.

`COCc1nc(C(F)(F)F)ccc1C(=O)C1=C(O)CC(C)(C)CC1=O` [Compound A8-B1063]: in experiment [1], the “Pre-emergence action, Abutilon” value was found to be 2; the “Pre-emergence action, Amaranthus” value worked out at 4; the “Pre-emergence action, Chenop.” value stood at 1; the “Pre-emergence action, Digitaria” value came to 3. Further, in experiment [1], the “Pre-emergence action, Echino.” value turned out to be 3 and the “Pre-emergence action, Panicum” value was 2.

Take `Cc1nc(C(F)(F)C(F)(F)C(F)(F)F)ccc1C(=O)C1=C(O)CCCC1=O` [Compound A64-B1]: in experiment [2], the “Post-emergence action, Ipomoea” value is listed as 2; the “Post-emergence action, Lolium” value stood at 3; the “Post-emergence action, Setaria” value amounted to 4; the “Post-emergence action, Sinapis” value was found to be 1. Also, in experiment [2], the “Post-emergence action, Solanum” value came out at 1 and the “Post-emergence action, Stellaria” value is 2.

Consider `Cc1nc(C(F)(F)F)ccc1C(=O)C1=C(O)CC(C)(C(F)(F)F)CC1=O` (stereo not shown) [Compound A2-B1066], for which, in experiment [2], the “Post-emergence action, Ipomoea” value was determined as 1; the “Post-emergence action, Lolium” value stood at 3; the “Post-emergence action, Setaria” value turned out to be 2; the “Post-emergence action, Sinapis” value stood at 1. Also, in experiment [2], the “Post-emergence action, Solanum” value is on record as 2 and the “Post-emergence action, Stellaria” value is listed as 2.

Consider `COCc1nc(C(F)(F)F)ccc1C(=O)C1=C(O)CCC=C(C)C1=O` [Compound A8-F5], for which, in experiment [2], the “Post-emergence action: Abutilon (score, nine-step scale)” value (“Post-emergence action: Abutilon” for short) is given as 3; the “Post-emergence action: Chenop. (score, nine-step scale)” value came to 3; the “Post-emergence action: Digitaria (score, nine-step scale)” value (“Post-emergence action: Digitaria” below) is recorded as 3; the “Post-emergence action: Echino. (score, nine-step scale)” value turned out to be 4. Further, in experiment [2], the “Post-emergence action: Ipopur. (score, nine-step scale)” value is on record as 3; the “Post-emergence action: Panicum (score, nine-step scale)” value (“Post-emergence action: Panicum” below) is listed as 4; the “Post-emergence action: Xanth. (score, nine-step scale)” value amounted to 3.

For `CCOC(=O)C1(C)C(O)=C(C(=O)c2ccc(C(F)(F)F)nc2COC)C(=O)C2CC21` (stereo not shown) [Compound A8-D111], in experiment [2], the “Post-emergence action: Abutilon” value was 3; the “Post-emergence action: Chenop. (score, nine-step scale)” value was determined as 3; the “Post-emergence action: Digitaria” value turned out to be 3; the “Post-emergence action: Echino. (score, nine-step scale)” value is on record as 3. For the same compound, in experiment [2], the “Post-emergence action: Ipopur. (score, nine-step scale)” value turned out to be 2; the “Post-emergence action: Panicum” value was 3; the “Post-emergence action: Xanth. (score, nine-step scale)” value is 1.

On to `Cc1nc(C(F)(F)F)ccc1C(=O)C1=C(O)CCC2(CCCCCC2)C1=O` [Compound A2-C149], for which, in experiment [2], the “Post-emergence action, Ipomoea” value was 1; the “Post-emergence action, Lolium” value worked out at 3; the “Post-emergence action, Setaria” value is 2; the “Post-emergence action, Sinapis” value came to 1. Besides, in experiment [2], the “Post-emergence action, Solanum” value amounted to 2 and the “Post-emergence action, Stellaria” value worked out at 2.

As to `COc1nc(C(F)(F)F)ccc1C(=O)C1=C(O)C(C)(C)CCC1=O` [Compound A1022-B24], in experiment [1], the “Pre-emergence action, Abutilon” value is recorded as 3; the “Pre-emergence action, Amaranthus” value was 4; the “Pre-emergence action, Chenop.” value was found to be 1; the “Pre-emergence action, Digitaria” value amounted to 4. For the same compound, in experiment [1], the “Pre-emergence action, Echino.” value was 4 and the “Pre-emergence action, Panicum” value is reported as 2.

In the case of `COCc1nc(C(F)(F)F)ccc1C(=O)C1=C(O)CC2CCCC2C1=O` (stereo not shown) [Compound A8-D36], in experiment [2], the “Post-emergence action: Abutilon” value was 2; the “Post-emergence action: Chenop. (score, nine-step scale)” value worked out at 2; the “Post-emergence action: Digitaria” value was 3; the “Post-emergence action: Echino. (score, nine-step scale)” value came to 2. In experiment [2], the “Post-emergence action: Ipopur. (score, nine-step scale)” value worked out at 3; the “Post-emergence action: Panicum” value is listed as 3; the “Post-emergence action: Xanth. (score, nine-step scale)” value is 3.

As to `COCc1nc(C(F)(F)F)ccc1C(=O)C1=C(O)C(C)C2CC2C1=O` (stereo not shown) [Compound A8-D109], in experiment [2], the “Post-emergence action: Abutilon” value stood at 3; the “Post-emergence action: Chenop. (score, nine-step scale)” value is recorded as 3; the “Post-emergence action: Digitaria” value is recorded as 3; the “Post-emergence action: Echino. (score, nine-step scale)” value is recorded as 3. Also, in experiment [2], the “Post-emergence action: Ipopur. (score, nine-step scale)” value is recorded as 2; the “Post-emergence action: Panicum” value was found to be 3; the “Post-emergence action: Xanth. (score, nine-step scale)” value is 1.

As to `CC1(C)CCC(=O)C(C(=O)c2ccc(C(F)(F)F)nc2C2CC2)=C1O` [Compound A6-B24], in experiment [2], the “Post-emergence action, Ipomoea” value stood at 1; the “Post-emergence action, Lolium” value is 3; the “Post-emergence action, Setaria” value stood at 2; the “Post-emergence action, Sinapis” value turned out to be 1. Besides, in experiment [2], the “Post-emergence action, Solanum” value was 1 and the “Post-emergence action, Stellaria” value is on record as 2.
